Measured values: patent US6060462A, “Electrophilic peptide analogs as inhibitors of trypsin-like enzymes” (DuPont Pharmaceuticals Company, priority 1997, dated 2000)
Where a name gives a salt, the structure may show the parent alone. Read-outs that look alike come from different tables or passages of the source.

Key:
human factor VIIa = biological target: T1, human factor VIIa (Homo sapiens, UniProt P08709); test: Inhibition of Factor VIIa hydrolysis of chromogenic substrate S2288 (Ki); type: biochemical; conditions: purified human factor VIIa, 0.05 M tris buffer; for Ki: pH 7.6, read-out: Ki values for inhibition of Serine Proteases: Factor VIIa; for Ki values for inhibition of Serine Proteases: Factor VIIa: pH 7.6
T1 construct: 50 nM human factor VIIa (BiosPacific, Emeryville, Calif.); purchased BiosPacific, Emeryville, Calif
T1 sequence (P08709 213-466 limits assumed): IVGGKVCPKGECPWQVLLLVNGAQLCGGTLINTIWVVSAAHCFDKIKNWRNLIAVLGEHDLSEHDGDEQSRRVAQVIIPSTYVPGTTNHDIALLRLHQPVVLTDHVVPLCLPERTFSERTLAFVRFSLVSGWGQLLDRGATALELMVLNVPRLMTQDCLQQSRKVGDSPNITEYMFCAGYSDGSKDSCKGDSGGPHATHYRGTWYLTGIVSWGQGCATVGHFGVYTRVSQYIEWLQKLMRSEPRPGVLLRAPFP
T1 sequence (P08709 61-212 partner limits assumed): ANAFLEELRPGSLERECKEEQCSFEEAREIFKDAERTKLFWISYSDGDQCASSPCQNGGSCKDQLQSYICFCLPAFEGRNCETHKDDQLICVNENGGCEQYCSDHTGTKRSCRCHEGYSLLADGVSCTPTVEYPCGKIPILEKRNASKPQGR
Description: (§1) The effectiveness of compounds of the present invention as inhibitors of blood coagulation proteases was determined using purified human proteases and synthetic substrates following procedures similar to those described in Kettner et al. (1990).
(§2) For these assays, the rate of enzymatic (thrombin, Factor Xa, and Factor VIIa) hydrolysis of chromogenic substrates (S2238 (H-D-Phe-Pip-Arg-pNA), S2222, and S2288, respectively; Kabi Pharmacia, Franklin, Ohio) was measured both in the absence and presence of compounds of the present invention. […] A decrease in the rate of absorbance change at 405 nm in the presence of inhibitor is indicative of enzyme inhibition. The results of this assay are expressed as inhibitory constant, Ki.
(§3) Thrombin and Xa determinations were made in 0.10 M sodium phosphate buffer, pH 7.5, containing 0.20 M NaCl, and 0.5% PEG 8000. VIIa determinations were made in 0.05 M tris buffer, pH 7.6, containing 0.10 M NaCl, 4 mM CaCl2, and 0.1% bovine serum albumin.
(§4) Reactions were allowed to go for 30 minutes and the velocities (rate of absorbance change vs time) were measured in the time frame of 25-30 minutes. The following relationship was used to calculate Ki values. [formula] where: vo is the velocity of the control in the absence of inhibitor;
(§5) vs is the velocity in the presence of inhibitor;
(§6) I is the concentration of inhibitor;
(§7) Ki is the dissociation constant of the enzyme: inhibitor complex;
(§8) S is the concentration of substrate;
(§9) Km is the Michaelis constant.

Thrombin time = Thrombin time (IC50), Table 80
human factor Xa = biological target: T2, human factor Xa (Homo sapiens, UniProt P00742); test: Inhibition of Factor Xa hydrolysis of chromogenic substrate S2222 (Ki); type: biochemical; conditions: purified human factor Xa, 0.10 M sodium phosphate buffer
T2 construct: 0.2-0.5 nM human thrombin or human factor Xa; purchased Enzyme Research Laboratories, South Bend, Ind
Description: as §1, §2, §3, §4, §5, §6, §7, §8, §9

human thrombin = human thrombin (Homo sapiens, UniProt P00734); test: Inhibition of thrombin hydrolysis of chromogenic substrate S2238 (Ki); type: biochemical; set-up: 0.2-0.5 nM human thrombin or human factor Xa; purchased Enzyme Research Laboratories, South Bend, Ind; conditions: purified human thrombin, 0.10 M sodium phosphate buffer, pH 7.5, read-out: Ki values for inhibition of Serine Proteases: Trombin
Description: as §1, §2, §3, §4, §5, §6, §7, §8, §9

[1] = pH 7.5, read-out: Ki values for inhibition of Serine Proteases: Factor Xa

T2 sequence (P00742 235-488 limits assumed): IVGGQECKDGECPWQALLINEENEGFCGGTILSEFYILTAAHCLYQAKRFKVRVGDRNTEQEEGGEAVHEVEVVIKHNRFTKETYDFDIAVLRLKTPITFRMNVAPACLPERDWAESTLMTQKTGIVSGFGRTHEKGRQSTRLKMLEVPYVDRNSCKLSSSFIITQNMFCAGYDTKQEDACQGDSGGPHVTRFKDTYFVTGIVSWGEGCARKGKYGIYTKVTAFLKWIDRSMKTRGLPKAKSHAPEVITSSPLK
T2 sequence (P00742 41-179 partner limits assumed): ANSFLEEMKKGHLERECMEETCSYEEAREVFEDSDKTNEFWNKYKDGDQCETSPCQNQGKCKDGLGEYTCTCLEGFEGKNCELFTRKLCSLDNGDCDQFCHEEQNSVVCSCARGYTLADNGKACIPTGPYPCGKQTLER

Compound	Ki (human factor VIIa)	IC50 (Thrombin time)	Ki (human factor Xa; [1])	Ki (human thrombin)	IC50 Thrombin time (Thrombin time)	Ki (human factor Xa; pH 7.5, hydrochloride salt, read-out: Ki values for inhibition of Serine Proteases: Factor Xa)	Ki values for inhibition of Serine Proteases: Factor VIIa (human factor VIIa)	Ki values for inhibition of Serine Proteases: Factor Xa (human factor Xa; pH 7.5)
2-(Thiophenyl)-Benzoyl-Sar-boroOrn(CH=NH)-C10H16 HCl [Example 63.4.1]	< 50000 nM	< 500 nM	< 500 nM	< 500 nM	–	–	–	–
2-Benzyl-(N-Benzyl)-Sar-boroLys--C10 H16 HCl [Example 64.1.1]	< 50000 nM	–	< 50000 nM	< 500 nM	Inactive	–	–	–
2-Thiophenyl-Benzoyl-Sar-boroLys(CH=NH)-C10H16 [Example 63.4.2]	< 50000 nM	< 50000 nM	< 500 nM	< 500 nM	–	–	–	–
N=CNCCCC(NC(=O)CN(CCc1ccccc1)C(=O)CCc1ccccc1)B(O)O (stereo not shown) [Example 49.1.3, Hydrocinnamoyl-[N-(Phenethyl)-Gly]-boroOrn(CH=NH)--OH HCl]	–	< 500 nM	< 500 nM	< 500 nM	–	–	–	–
CN=C(N)NCCCC(NC(=O)CN(CCc1ccccc1)C(=O)CCc1ccccc1)B1OC2CC3CC(C3(C)C)C2(C)O1 (stereo not shown) [Example 49.2.1, Hydrocinnamoyl-[N-(Phenethyl)-Gly]-boroArg(CH3)-C10H16 HCl]	–	< 50000 nM	< 500 nM	< 500 nM	–	–	–	–
Cc1cccc(CCN(CC(=O)NC(CCCCN)B(O)O)C(=O)CCc2ccccc2)c1 (stereo not shown) [Example 52.1.2, Hydrocinnamoyl-[N-(3-methylphenethyl)-Gly]-boroLys--OH hydrochloride salt]	< 50000 nM	< 500 nM	< 500 nM	< 500 nM	–	–	–	–
CC(C)(CN(CC(=O)NC(CCCCN)B(O)O)C(=O)CCc1ccccc1)c1ccccc1 (stereo not shown) [Example 53.1.1, Hydrocinnamoyl-[N-(2,2-dimethyl)-phenethyl-Gly]-boroLys--OH hydrochloride salt]	< 500 nM	< 500 nM	–	< 500 nM	–	< 500 nM	–	–
NCCCCC(NC(=O)CN(CCc1ccccc1C1CC1)C(=O)CCc1ccccc1)B(O)O (stereo not shown) [Example 53.1.2, Hydrocinnamoyl-[N-(2-(Cyclopropyl)-Phenethyl)-Gly]-boroLys--OH HCl]	< 500 nM	< 500 nM	< 500 nM	< 500 nM	–	–	–	–
CC1(C)C2CC3OB(C(CCCCN)NC(=O)CN(CCc4ccccc4C4CC4)C(=O)CCc4ccccc4)OC3(C)C1C2 (stereo not shown) [Example 54.1.2, Hydrocinnamoyl-[N-(2-(Cyclopropyl)-Phenethyl)-Gly]-boroLys-C10H16 HCl]	< 500 nM	< 500 nM	< 50000 nM	< 500 nM	–	–	–	–
CN(c1ccccc1)N(CC(=O)NC(CCCCN)B1OC2CC3CC(C3(C)C)C2(C)O1)C(=O)CCc1ccccc1 (stereo not shown) [Example 54.2.1, Hydrocinnamoyl-[N-(N-(Methyl)-Phenyl)-Gly]-boroLys-C10H16 HCl]	–	< 50000 nM	–	< 500 nM	–	–	–	–
NCCCCC(NC(=O)CN(C(=O)CCc1ccccc1)C1CC1)B(O)O (stereo not shown) [Example 59.4.2, Hydrocinnamoyl-[N-(Cyclopropyl)-Gly]-boroLys--OH HCl]	–	< 500 nM	< 50000 nM	< 500 nM	–	–	–	–
CN(CC(=O)NC(CCCCN)B1OC2CC3CC(C3(C)C)C2(C)O1)Cc1ccccc1Cn1cccc1 (stereo not shown) [Example 64.1.3, Pinanediol N-{N-methyl-N-[2-(pyrrol-1-ylmethyl)-Benzyl]glycyl}-1-amido-5-aminopentaneboronate, hydrochloride salt]	–	< 50000 nM	–	< 500 nM	–	–	–	–
CN(CC(=O)NC(CCCCN)B(O)O)Cc1ccccc1Cn1cccc1 (stereo not shown) [Example 65.1.3, N-{N-methyl-N-[2-(pyrrol-1-ylmethyl)-Benzyl]glycyl}-1-amido-5-aminopentaneboronic acid, hydrochloride salt]	–	< 50000 nM	–	< 500 nM	–	–	–	–
NCCCCC(NC(=O)CN(C(=O)COc1ccccc1)C1CC1)B(O)O (stereo not shown) [Example 78.1.2, Phenoxyacetyl-[N-(Cyclopropyl)-Gly]-boroLys--OH HCl]	–	< 500 nM	–	< 500 nM	–	–	–	–
NCCCCC(NC(=O)CN(C(=O)Cc1cccs1)C1CC1)B(O)O (stereo not shown) [Example 78.1.3, Thiophenacetyl-[N-(Cyclopropyl)-Gly]-boroLys--OH HCl]	–	< 500 nM	–	< 500 nM	–	–	–	–
CC1(C)C2CC3OB(C(CCCCN)NC(=O)CN(C(=O)COc4ccccc4)C4CC4)OC3(C)C1C2 (stereo not shown) [Example 79.1.2, Phenoxyacetyl-[N-(Cyclopropyl)-Gly]-boroLys-C10H16 HCl]	–	< 500 nM	–	< 500 nM	–	–	–	–
CC1(C)C2CC3OB(C(CCCCN)NC(=O)CN(C(=O)Cc4cccs4)C4CC4)OC3(C)C1C2 (stereo not shown) [Example 79.1.3, Thiophenacetyl-[N-(Cyclopropyl)-Gly]-boroLys-C10H16 HCl]	–	< 500 nM	–	< 500 nM	–	–	–	–

Compound	Ki (human factor VIIa)	IC50 (Thrombin time)	Ki (human factor Xa; [1])	Ki (human thrombin)	IC50 Thrombin time (Thrombin time)	Ki (human factor Xa; pH 7.5, hydrochloride salt, read-out: Ki values for inhibition of Serine Proteases: Factor Xa)	Ki values for inhibition of Serine Proteases: Factor VIIa (human factor VIIa)	Ki values for inhibition of Serine Proteases: Factor Xa (human factor Xa; pH 7.5)
Hydrocinnamoyl-Sar-Lys(Z)--C(=O)--O-(CH2)2--NH(Z) [Example 61.1.2]	–	–	–	< 50000 nM	–	–	Inactive	Inactive
Hydrocinnamoyl-Sar-Lys--C(=O)--O--(CH2)2--NH2 2 HCl [Example 61.1.3]	–	–	< 50000 nM	< 50000 nM	–	–	Inactive	–
Hydrocinnamoyl-Sar-Lys--C(=O)--OCH3 HCl [Example 61.2.1]	< 50000 nM	–	< 50000 nM	< 50000 nM	–	–	–	–
Hydrocinnamoyl-Sar-Lys[C(O)CO2 H] [Example 61.1.1]	< 50000 nM	–	< 50000 nM	< 500 nM	–	–	–	–
Hydrocinnamoyl-[N-(2,2-(Dimethyl)-Phenethyl)-Gly]-boroOrn(CH=NH)--OH HCl [Example 57.1.1]	< 500 nM	–	< 500 nM	< 500 nM	–	–	–	–
Hydrocinnamoyl-[N-(2,2-(Dimethyl)-Phernethyl)-Gly]-boroOrn(CH=NH)-C10H16 HCl [Example 58.1.1]	< 500 nM	–	< 500 nM	< 500 nM	–	–	–	–
Hydrocinnamoyl-[N-(2-(Cyclopropyl)-Phenethyl)-Gly]-boroOrn(CH=NH)--OH HCl [Example 57.1.2]	< 500 nM	–	< 500 nM	< 500 nM	–	–	–	–
Hydrocinnamoyl-[N-(Cyclopropyl)-Gly]-boroOrn(CH=NH)--OH HCl [Example 57.4.2]	–	< 500 nM	< 50000 nM	< 500 nM	–	–	–	–
Hydrocinnamoyl-[N-(N(CH3)2)-Gly]-boroLys--OH HCl [Example 72.1.3]	–	< 500 nM	–	< 500 nM	–	–	–	–
Hydrocinnamoyl-[N-(N(CH3)2)-Gly]-boroOrn(CH=NH)-C10H16 HCl [Example 50.1.2]	–	< 500 nM	–	< 500 nM	–	–	–	–
Hydrocinnamoyl-[N-(N-(Methyl)-Benzyl)-Gly]-boroLys--OH HCl [Example 53.2.2]	< 500 nM	–	< 500 nM	< 500 nM	–	–	–	–
Hydrocinnamoyl-[N-(N-(Methyl)-Benzyl)-Gly]-boroLys-C10H16 HCl [Example 54.2.2]	–	< 50000 nM	–	< 500 nM	–	–	–	–
Hydrocinnamoyl-[N-(N-(Methyl)-Phenyl)-Gly]-boroLys--OH HCl [Example 53.2.1]	–	< 50000 nM	–	< 500 nM	–	–	–	–
Hydrocinnamoyl-[N-(Phenethyl)-Gly]-boroOrn(CH=NH)-C10H16 HCl [Example 49.1.2]	–	< 500 nM	–	< 500 nM	–	–	–	–
Pinanediol N-{N-methyl-N-[2-(Thiophenyl)-Benzoyl]Sar}-1-amido-5-thiocyanatobutane boronate [Example 63.5.1]	–	–	< 50000 nM	< 50000 nM	–	–	inactive	–
[3-(Trifluoromethyl)-Benzyl]-Benzoyl-Sar-boroLys-C10H16 HCl [Example 64.2.2]	< 50000 nM	–	< 500 nM	< 500 nM	–	–	–	–
